Measured values from PMC5943945, “Design, Synthesis and Cytotoxic Evaluation of Novel Chalcone Derivatives Bearing Triazolo[4,3-a]-quinoxaline Moieties as Potent Anticancer Agents with Dual EGFR Kinase and Tubulin Polymerization Inhibitory Effects” (Molecules : A Journal of Synthetic Chemistry and Natural …, 2017).
Where “and” joins values, the source holds several entries; their conditions need not be identical. Identical values can stand only once. Like-named read-outs stand apart in the source and are kept apart here.

Tests used:
MCF-7 = test: MTT cytotoxicity assay, MCF-7; format: cell-based; details: Homo sapiens, MCF7, 72 h exposure, mean ± SD
Description: (§1) The newly synthesized chalcone compounds 7a–k were evaluated for their in vitro anticancer activity against three cancer cell lines—HCT-116, MCF-7 and HepG-2—according to the MTT assay method using doxorubicin as reference drug.
(§2) The in vitro anticancer activities of the selected chalcone compounds against three cancer cell lines: human colon carcinoma (HCT-116), human hepatocellular carcinoma (HEPG-2), and human breast adenocarcinoma (MCF-7) were evaluated as described with some modifications. Target tumor cells were grown to log phase in DMEM medium supplemented with 10% fetal bovine serum. After diluting to 1 × 10^5 cells mL^−1 with the medium, 100 μL of the obtained cell suspension was added to each well of 96-well culture plates. Subsequently, incubation was performed at 37 °C in 5% CO2 atmosphere for 48 h before the cytotoxicity assessment. Tested samples at preset concentrations were added to 6 wells with doxorubicin being employed as a positive reference. After 72 h exposure period, 25 μL of PBS containing 2.5 mg mL^−1 of MTT was added to each well. After 4 h, the medium was replaced by 150 μL DMSO to dissolve the purple formazan crystals produced. The absorbance at 570 nm of each well was measured with an ELISA plate reader. The data represented the mean of three independent experiments in triplicate and were expressed as means ± SD.

HepG-2 = test: MTT cytotoxicity assay, HepG-2; format: cell-based; details: Homo sapiens, HepG2, 72 h exposure, mean ± SD
Description: as §1, §2

HCT-116 = test: MTT cytotoxicity assay, HCT-116; format: cell-based; details: Homo sapiens, 72 h exposure, mean ± SD
Description: as §1, §2

EGFR TK = target: T1, EGFR TK (Homo sapiens, UniProt P00533); test: EGFR inhibition assay (HTScan EGFR kinase assay kit); format: biochemical; details: averages of three independent experiments; compounds tested at concentration of 10 μM; 400 μM ATP
T1 construct: purchased Cell Signaling Technology
T1 sequence (P00533 25-1210): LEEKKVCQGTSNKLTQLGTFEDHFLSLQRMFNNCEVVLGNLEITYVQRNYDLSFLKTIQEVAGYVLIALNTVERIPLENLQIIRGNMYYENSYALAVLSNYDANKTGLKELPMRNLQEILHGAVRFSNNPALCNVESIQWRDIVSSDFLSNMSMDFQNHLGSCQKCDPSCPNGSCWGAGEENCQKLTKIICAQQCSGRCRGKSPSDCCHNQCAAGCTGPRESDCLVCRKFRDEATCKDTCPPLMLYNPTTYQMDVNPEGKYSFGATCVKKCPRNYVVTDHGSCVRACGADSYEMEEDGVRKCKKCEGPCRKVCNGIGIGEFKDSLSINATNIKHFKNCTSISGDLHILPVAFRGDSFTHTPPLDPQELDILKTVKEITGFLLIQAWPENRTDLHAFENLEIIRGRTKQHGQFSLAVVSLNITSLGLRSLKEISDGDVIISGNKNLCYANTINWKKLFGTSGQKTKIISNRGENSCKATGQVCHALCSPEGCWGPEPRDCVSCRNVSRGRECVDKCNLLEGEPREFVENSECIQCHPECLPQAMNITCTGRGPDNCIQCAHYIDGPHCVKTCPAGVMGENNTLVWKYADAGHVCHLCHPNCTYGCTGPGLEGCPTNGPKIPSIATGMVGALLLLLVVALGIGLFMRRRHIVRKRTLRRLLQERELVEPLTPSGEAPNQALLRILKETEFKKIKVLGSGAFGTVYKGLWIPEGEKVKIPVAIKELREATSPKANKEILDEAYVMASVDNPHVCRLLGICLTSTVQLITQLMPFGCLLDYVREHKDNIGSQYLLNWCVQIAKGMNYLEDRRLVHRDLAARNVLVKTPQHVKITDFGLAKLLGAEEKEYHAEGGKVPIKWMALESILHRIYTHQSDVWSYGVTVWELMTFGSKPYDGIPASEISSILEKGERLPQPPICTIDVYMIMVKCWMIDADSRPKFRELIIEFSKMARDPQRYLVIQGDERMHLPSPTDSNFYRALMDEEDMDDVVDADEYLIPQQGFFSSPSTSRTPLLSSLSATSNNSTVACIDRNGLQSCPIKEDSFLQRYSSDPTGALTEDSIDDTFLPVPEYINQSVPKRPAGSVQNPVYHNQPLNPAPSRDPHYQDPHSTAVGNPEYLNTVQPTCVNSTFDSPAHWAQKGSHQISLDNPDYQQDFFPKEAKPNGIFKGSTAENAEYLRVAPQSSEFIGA
Description: As the designed compounds had good antiproliferative activity, in vitro EGFR inhibition capability was firstly evaluated for the target cytotoxic derivatives to see whether their cytotoxicity was mediated by kinase inhibition. […]. EGFR kinase activity was assessed using HTScan EGFR kinase assay kits (Cell Signaling Technology, Danvers, MA, USA). The experiments were performed according to the manufacturer’s instructions. […] Phosphorylated substrate was captured with strapavidin-coated 96-well plates. The level of phosphorylation was monitored by anti-phosphotyrosine and europium-labeled secondary antibodies (DELFIA, Perkin-Elmer, Akron, OH, USA). The enhancement solution was added at the end of the assay and enzyme activity was measured in a Victor II 1420 microplate reader (Wallac, Boston, MA, USA) at […].

tubulin = target: T2, tubulin (Homo sapiens, UniProt P07437+P68363); test: Tubulin polymerization / ELISA for Tubulin Beta (TUBb) in HCT-116 cells; format: cell-based
T2 construct: The HCT-116 cell line was obtained from the American Type Culture Collection; endogenous in cells; host or cells: HCT-116
T2 sequence (P07437 whole entry): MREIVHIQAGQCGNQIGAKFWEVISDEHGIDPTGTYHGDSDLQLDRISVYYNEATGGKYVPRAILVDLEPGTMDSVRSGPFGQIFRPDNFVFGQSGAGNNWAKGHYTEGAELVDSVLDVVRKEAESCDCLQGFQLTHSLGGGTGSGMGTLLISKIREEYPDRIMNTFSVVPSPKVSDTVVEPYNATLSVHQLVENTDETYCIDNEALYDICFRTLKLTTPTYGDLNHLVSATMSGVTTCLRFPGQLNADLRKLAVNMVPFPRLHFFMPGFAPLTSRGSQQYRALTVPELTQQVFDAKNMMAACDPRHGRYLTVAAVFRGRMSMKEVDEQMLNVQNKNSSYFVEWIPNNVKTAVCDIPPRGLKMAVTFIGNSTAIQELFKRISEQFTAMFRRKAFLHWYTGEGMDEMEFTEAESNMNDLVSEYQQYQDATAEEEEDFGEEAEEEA
T2 sequence (P68363 whole entry): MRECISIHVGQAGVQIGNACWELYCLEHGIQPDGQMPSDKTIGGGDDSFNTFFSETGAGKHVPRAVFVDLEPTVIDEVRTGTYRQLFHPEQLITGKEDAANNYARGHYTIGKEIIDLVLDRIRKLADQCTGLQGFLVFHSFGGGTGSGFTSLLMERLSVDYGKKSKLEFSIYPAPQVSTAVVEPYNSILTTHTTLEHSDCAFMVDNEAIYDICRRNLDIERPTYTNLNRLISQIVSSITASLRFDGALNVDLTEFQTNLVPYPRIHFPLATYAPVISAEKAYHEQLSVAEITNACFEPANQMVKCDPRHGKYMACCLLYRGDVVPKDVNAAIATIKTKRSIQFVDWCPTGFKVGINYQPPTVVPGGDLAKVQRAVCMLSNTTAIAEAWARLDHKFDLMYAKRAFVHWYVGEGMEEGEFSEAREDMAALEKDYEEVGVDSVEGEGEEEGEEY
Description: Tubulin is the principal component of the eukaryotic cytoskeleton and participates in several crucial cellular processes, including cell replication.
Plate cells (cells density 1.2–1.8 × 10^3 cells/well) in a volume of […] complete growth medium and […] of the tested compound per well in a 96-well plate for 18–24 h before the enzyme assay for tubulin. […] Standards or samples are then added to the appropriate microtiter plate wells with a biotin-conjugated antibody specific to TUBb. Next, avidin conjugated to horseradish peroxidase (HRP) is added to each microplate well and incubated. […] The enzyme-substrate reaction is terminated by the addition of sulphuric acid solution and the color change is measured spectrophotometrically at a wavelength of 450 ± 10 nm. The concentration of TUBb in the samples is then determined by comparing the O.D. of the samples to the standard curve.

[1] = test system: HCT-116, MCF-7 and HepG-2; test: MTT cytotoxicity, statements across the three cell lines; format: cell-based, human; details: for IC50: Homo sapiens, range over HCT-116, MCF-7, HepG-2, read-out: IC50 against the three cell lines (range given); for anticancer activity in words: three cell lines, MTT
Description: as §1, §2

[2] = averages of two independent experiments, read-out: Tubulin Polymerization (IC50 µM)

Row | SMILES | IC50 (MCF-7) [µM] | IC50 (HepG-2) [µM] | melting point [°C] | IC50 (HCT-116) [µM] | IC50 (EGFR TK) | IC50 (tubulin; [2]) [µM] | IC50 [1] [µM] | IC50 (tubulin; abstract text, read-out: antitubulin polymerization activity (abstract)) [µM] | anticancer activity in words [1]
1 | CCc1nnc2c(Nc3ccc(C(C)=O)cc3)nc3ccccc3n12 [Compound 6, 1-(4-((1-ethyl-[1,2,4]triazolo[4,3-a]quinoxalin-4-yl)amino)phenyl)ethan-1-one] | 410 ± 0.25 | 446 ± 0.2 | 235 to 237 | 411 ± 0.21 |  |  |  |  | 
2 | CCc1nnc2c(Nc3ccc(C(=O)/C=C/c4c(Cl)cccc4Cl)cc3)nc3ccccc3n12 [Compound 7k, (E)-3-(2,6-Dichlorophenyl)-1-(4-((1-ethyl-[1,2,4]triazolo[4,3-a]quinoxalin-4-yl)amino)phenyl)prop-2-en-1-one] | > 100 | > 100 | 250 to 252 | 19.7 ± 0.25 | > 100 µM | > 100 |  |  | 
3 | CCc1nnc2c(Nc3ccc(C(=O)/C=C/c4ccccc4OC)cc3)nc3ccccc3n12 [Compound 7b, (E)-1-(4-((1-Ethyl-[1,2,4]triazolo[4,3-a]quinoxalin-4-yl)amino)phenyl)-3-(2-methoxyphenyl)prop-2-en-1-one] | 24.04 ± 0.12 | 30.72 ± 0.12 | 264 to 266 | 25.6 ± 0.03 | 0.127 to 0.136 µM and 0.127 µM | 18.1 ± 0.3 | 1.65 to 34.3 |  | 
4 | CCc1nnc2c(Nc3ccc(C(=O)/C=C/c4ccc([N+](=O)[O-])cc4)cc3)nc3ccccc3n12 [Compound 7h, (E)-1-(4-((1-Ethyl-[1,2,4]triazolo[4,3-a]quinoxalin-4-yl)amino)phenyl)-3-(4-nitrophenyl)prop-2-en-1-one] | > 100 | > 100 | 260 to 262 | > 100 | > 100 µM | > 100 |  |  | 
5 | CCc1nnc2c(Nc3ccc(C(=O)/C=C/c4cc(OC)c(OC)c(OC)c4)cc3)nc3ccccc3n12 [Compound 7g, (E)-1-(4-((1-Ethyl-[1,2,4]triazolo[4,3-a]quinoxalin-4-yl)amino)phenyl)-3-(3,4,5-trimethoxyphenyl)prop-2-en-1-one] | 1.65 ± 0.13 | 8.58 ± 0.06 |  | 3.61 ± 0.18 | 0.039 µM | 8.84 ± 0.02 | 1.65 to 34.3 | 8.4 | 
6 | CCc1nnc2c(Nc3ccc(C(=O)/C=C/c4ccc(O)cc4)cc3)nc3ccccc3n12 [Compound 7f, (E)-1-(4-((1-Ethyl-[1,2,4]triazolo[4,3-a]quinoxalin-4-yl)amino)phenyl)-3-(4-hydroxyphenyl)prop-2-en-1-one] | > 100 | > 100 | 253 to 255 | 18.1 ± 0.15 | > 50 µM | > 100 |  |  | 
7 | CCc1nnc2c(Nc3ccc(C(=O)/C=C/c4ccccc4)cc3)nc3ccccc3n12 [Compound 7a, (E)-1-(4-((1-Ethyl-[1,2,4]triazolo[4,3-a]quinoxalin-4-yl)amino)phenyl)-3-phenylprop-2-en-1-one] | 58.92 ± 0.32 | 105.2 ± 0.5 | 260 to 262 | 57.49 ± 0.29 | 0.661 ± 0.00011 µM | 77.1 ± 0.21 |  |  | did not show significant activity
8 | CCc1nnc2c(Nc3ccc(C(=O)/C=C/c4ccc(Cl)cc4Cl)cc3)nc3ccccc3n12 [Compound 7j, (E)-3-(2,4-Dichlorophenyl)-1-(4-((1-ethyl-[1,2,4]triazolo[4,3-a]quinoxalin-4-yl)amino)phenyl)prop-2-en-1-one] | > 100 | > 100 | 250 to 252 | > 100 | > 100 µM | > 100 |  |  | 
9 | CCc1nnc2c(Nc3ccc(C(=O)/C=C/c4ccc(C)cc4)cc3)nc3ccccc3n12 [Compound 7d, (E)-1-(4-((1-Ethyl-[1,2,4]triazolo[4,3-a]quinoxalin-4-yl)amino)phenyl)-3-(p-tolyl)prop-2-en-1-one] | 93.4 ± 0.14 | > 100 | 247 to 249 | > 100 | > 100 µM |  |  |  | low activity
10 | CCc1nnc2c(Nc3ccc(C(=O)/C=C/c4ccccc4O)cc3)nc3ccccc3n12 [Compound 7c, (E)-1-(4-((1-Ethyl-[1,2,4]triazolo[4,3-a]quinoxalin-4-yl)amino)phenyl)-3-(2-hydroxyphenyl)prop-2-en-1-one] | 22.17 ± 0.11 | 17.32 ± 0.12 | 261 to 263 | 19.8 ± 0.23 | 0.127 to 0.136 µM and 0.136 µM | 43.4 ± 0.01 |  |  | 
11 | CCc1nnc2c(Cl)nc3ccccc3n12 [Compound 5, 4-Chloro-1-ethyl-[1,2,4]triazolo[4,3-a]quinoxaline] | 246 ± 0.13 | 322 ± 0.15 | 158 to 160 | 236 ± 0.1 |  |  |  |  | 
12 | COc1cccc2c1C(=O)c1c(O)c3c(c(O)c1C2=O)C[C@@](O)(C(=O)CO)C[C@@H]3O[C@H]1C[C@H](N)[C@H](O)[C@H](C)O1 [Doxorubicin, reference compound] | 0.27 ± 0.08 | 0.22 ± 0.01 |  | 1.55 ± 0.03 |  |  |  |  | 
13 | CCc1nnc2c(Nc3ccc(C(=O)/C=C/c4ccc(Cl)cc4)cc3)nc3ccccc3n12 [Compound 7i, (E)-3-(4-Chlorophenyl)-1-(4-((1-ethyl-[1,2,4]triazolo[4,3-a]quinoxalin-4-yl)amino)phenyl)prop-2-en-1-one] | > 100 | > 100 | 255 to 257 | > 100 | > 100 µM | > 100 |  |  | 
14 | CCc1nnc2c(Nc3ccc(C(=O)/C=C/c4ccc(OC)cc4)cc3)nc3ccccc3n12 [Compound 7e, (E)-1-(4-((1-Ethyl-[1,2,4]triazolo[4,3-a]quinoxalin-4-yl)amino)phenyl)-3-(4-methoxyphenyl)prop-2-en-1-one] | 8.23 ± 0.25 | 34.28 ± 0.14 |  | 9.57 ± 0.11 | 0.083 ± 0.04 µM | 14.7 ± 0.11 | 1.65 to 34.3 |  | 
